The target in test [1] is HEK-293 cells transfected with dox-inducible human wild type FGFR1 (Homo sapiens (Human), UniProt P11362). The test is described as follows: FGFR1 pERK cell assay. Type of test: cell-based. Particulars: HEK-293 dox-inducible FGFR1, 1 hour compound, 100 ng/ml FGF-acidic; maximum concentration 5 μM. The gist of the method: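 In HEK-293 cells with dox-induced human wild-type FGFR1, compounds (1:3 dilutions, top 5 μM final) were applied 1 h at 37°C before 5 min stimulation with 100 ng/ml FGF-acidic. Phospho-ERK1/2 measured by MSD sandwich immunoassay; IC50 from 4-parameter fit of POC versus vehicle and control compound.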

Test [2] concerns the target FGFR1 (SEQ ID NO: 1, amino acids 458-765) (Homo sapiens (Human), UniProt P11362). Description: LC/MS FGFR1 kobs assay (covalent protein modification). It counts as binding. The conditions noted are these: 500 nM FGFR1, 3 μM compound. An outline of the steps:
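Covalent labeling of FGFR1 kinase domain (aa 458-765) tracked over time by intact-protein LC/MS after formic acid quench. kobs derived by fitting DMSO-normalized percent unmodified FGFR1 to an exponential decay model.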

The target of test [3] is recombinant human FGFR2 cytoplasmic domain (amino acids 403-822) (Homo sapiens (Human), UniProt P21802). Description: FGFR2 enzyme activity assay (LanthaScreen TR-FRET). It counts as biochemical. Particulars: 15 μM ATP, 20 min incubation at 22° C., average of multiple determinations if made, read-out: FGFR2 Enz FRET IC50. The gist of the method:
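His-tagged FGFR2 cytoplasmic domain ([…]) with 100 nM Alexa Fluor 647-poly-GT peptide and 15 μM ATP in HEPES/MgCl2/Triton buffer, pH 7.5, 2% DMSO, 20 min at 22 °C. EDTA-quenched, Eu-PY20 antibody added, TR-FRET read after 60 min.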

The target of test [4] is FGFR3 (SEQ ID NO: 5, amino acids 449-759) (Homo sapiens (Human), UniProt P22607). The test is described as follows: LC/MS FGFR3 kobs assay (covalent protein modification). Particulars: 500 nM FGFR3, 3 μM compound. It counts as binding. The gist of the method: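 Covalent modification of FGFR1 (aa 458-765) or FGFR3 (aa 449-759) followed over time; reactions quenched with 0.4% formic acid and analysed by Q-TOF LC/MS after deconvolution. Percent unmodified protein, normalized to DMSO controls, fit to exponential decay to give kobs; averaged where repeated.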

The target in test [5] is recombinant human FGFR3 (amino acids R397-T806) (Homo sapiens (Human), UniProt P22607). The test is described as follows: FGFR3 enzyme activity assay (LanthaScreen TR-FRET). Type of test: biochemical. The conditions noted are these: 25 μM ATP, 10 min incubation at 22° C., average of multiple determinations if made, read-out: FGFR3 Enz FRET IC50. The gist of the method: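 GST-HIS6-tagged human FGFR3 (R397-T806) was reacted with 100 nM Alexa Fluor 647-Poly-GT substrate and 25 μM ATP plus compound in HEPES/MgCl2/Triton buffer, pH 7.5, 2% DMSO, for 10 min at 22 °C.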

pIC50: −log10 of the molar value.

Chain of HEK-293 cells transfected with dox-inducible human wild type FGFR1 (P11362 22-822): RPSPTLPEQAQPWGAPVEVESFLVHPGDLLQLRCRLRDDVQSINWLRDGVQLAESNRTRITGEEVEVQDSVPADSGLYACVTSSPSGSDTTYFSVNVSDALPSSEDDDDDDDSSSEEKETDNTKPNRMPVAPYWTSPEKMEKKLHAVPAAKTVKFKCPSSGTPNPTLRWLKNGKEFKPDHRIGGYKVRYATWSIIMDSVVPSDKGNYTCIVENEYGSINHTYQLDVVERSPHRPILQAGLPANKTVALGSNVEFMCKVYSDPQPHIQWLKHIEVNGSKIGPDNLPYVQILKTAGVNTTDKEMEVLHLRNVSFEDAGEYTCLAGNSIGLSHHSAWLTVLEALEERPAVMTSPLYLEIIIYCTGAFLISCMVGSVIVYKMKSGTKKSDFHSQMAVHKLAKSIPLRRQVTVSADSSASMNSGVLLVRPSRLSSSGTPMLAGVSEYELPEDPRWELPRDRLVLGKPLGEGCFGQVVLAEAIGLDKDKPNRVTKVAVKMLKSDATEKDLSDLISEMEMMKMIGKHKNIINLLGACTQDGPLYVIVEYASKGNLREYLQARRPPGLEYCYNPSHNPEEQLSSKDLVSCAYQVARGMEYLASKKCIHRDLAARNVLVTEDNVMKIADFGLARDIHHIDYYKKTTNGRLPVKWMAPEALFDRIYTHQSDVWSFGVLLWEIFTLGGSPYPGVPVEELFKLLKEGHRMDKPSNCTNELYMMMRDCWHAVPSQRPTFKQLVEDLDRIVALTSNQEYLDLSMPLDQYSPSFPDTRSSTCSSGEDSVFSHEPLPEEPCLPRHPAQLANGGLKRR
Chain of FGFR3 (SEQ ID NO: 5, amino acids 449-759) (P22607 449-759): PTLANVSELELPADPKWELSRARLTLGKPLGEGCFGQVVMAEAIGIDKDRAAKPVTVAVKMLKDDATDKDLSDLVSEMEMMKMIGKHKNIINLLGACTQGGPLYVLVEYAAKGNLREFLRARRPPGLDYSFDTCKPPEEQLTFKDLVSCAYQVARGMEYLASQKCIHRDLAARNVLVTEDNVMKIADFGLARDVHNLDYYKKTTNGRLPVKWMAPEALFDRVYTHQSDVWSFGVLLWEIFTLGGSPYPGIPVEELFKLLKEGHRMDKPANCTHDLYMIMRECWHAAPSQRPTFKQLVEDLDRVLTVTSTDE
Chain of FGFR1 (SEQ ID NO: 1, amino acids 458-765) (P11362 458-765): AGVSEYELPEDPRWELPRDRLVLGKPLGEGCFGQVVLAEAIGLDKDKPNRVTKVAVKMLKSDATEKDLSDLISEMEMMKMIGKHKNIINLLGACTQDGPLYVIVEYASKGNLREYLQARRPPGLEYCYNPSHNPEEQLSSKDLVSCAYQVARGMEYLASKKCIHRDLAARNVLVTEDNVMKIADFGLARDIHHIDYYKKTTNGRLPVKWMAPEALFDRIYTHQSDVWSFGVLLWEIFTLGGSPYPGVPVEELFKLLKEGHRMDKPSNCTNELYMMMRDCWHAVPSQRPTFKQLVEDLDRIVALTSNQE
Chain of recombinant human FGFR2 cytoplasmic domain (amino acids 403-822) (P21802 402-821): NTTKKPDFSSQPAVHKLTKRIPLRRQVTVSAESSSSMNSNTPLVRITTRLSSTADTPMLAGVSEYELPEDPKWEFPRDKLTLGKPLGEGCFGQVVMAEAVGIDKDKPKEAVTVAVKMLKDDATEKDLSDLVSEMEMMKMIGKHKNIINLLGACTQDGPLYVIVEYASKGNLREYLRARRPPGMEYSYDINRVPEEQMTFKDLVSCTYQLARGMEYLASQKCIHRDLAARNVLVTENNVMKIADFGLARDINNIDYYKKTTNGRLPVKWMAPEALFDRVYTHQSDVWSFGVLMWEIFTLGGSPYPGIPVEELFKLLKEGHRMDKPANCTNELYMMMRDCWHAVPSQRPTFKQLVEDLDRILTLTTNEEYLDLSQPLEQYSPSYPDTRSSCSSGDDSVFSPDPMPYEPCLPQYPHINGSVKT
Chain of recombinant human FGFR3 (amino acids R397-T806) (P22607 397-806): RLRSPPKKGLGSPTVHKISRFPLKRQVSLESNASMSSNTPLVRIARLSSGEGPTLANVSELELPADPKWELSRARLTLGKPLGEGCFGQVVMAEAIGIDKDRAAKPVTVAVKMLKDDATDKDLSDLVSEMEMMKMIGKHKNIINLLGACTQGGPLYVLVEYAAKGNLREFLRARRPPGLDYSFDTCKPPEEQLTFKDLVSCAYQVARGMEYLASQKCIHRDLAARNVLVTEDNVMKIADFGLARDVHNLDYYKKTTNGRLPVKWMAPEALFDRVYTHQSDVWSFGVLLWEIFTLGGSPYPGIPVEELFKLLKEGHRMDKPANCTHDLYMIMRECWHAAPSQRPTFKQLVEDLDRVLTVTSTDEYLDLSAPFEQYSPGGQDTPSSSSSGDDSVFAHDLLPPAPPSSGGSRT

With `COc1cc(-c2cnn(C3CCN(C(=O)C4CN(C(=O)/C=C/CN5CCOCC5)C4)CC3)c2)cn2ncc(C#N)c12` [Example 184, (E)-4-methoxy-6-(1-(1-(1-(4-morpholinobut-2-enoyl)azetidine-3-carbonyl)piperidin-4-yl)-1H-pyrazol-4-yl)pyrazolo[1,5-a]pyridine-3-carbonitrile], the pIC50 in test [1] is ≤ 5.30; in test [3], 8.40; in test [5], 8.22. For the same molecule, the “FGFR1 Enz kobs” value in test [2] was 0.00043 min⁻¹. Further, the “FGFR3 Enz kobs” value in test [4] was found to be 0.00475 min⁻¹.
In the same order, the values of `C=CS(=O)(=O)N1CCC(C(=O)N2CCC(n3cc(-c4cc(OC)c5c(C#N)cnn5c4)cn3)CC2)CC1` [Example 186, 4-methoxy-6-(1-(1-(1-(vinylsulfonyl)piperi-dine-4-carbonyl)piperidin-4-yl)-1H-pyrazol-4-yl)pyrazolo[1,5-a]pyridine-3-carbonitrile] are 7.46, 8.10, 8.30, 0.01483 min⁻¹ and 0.08793 min⁻¹.

The values are drawn from patent US12180207B2 (ARRAY BIOPHARMA INC., priority 2018, dated 2024).
